Source: US10112941B2, “Tricyclic compounds as anticancer agents” (BRISTOL-MYERS SQUIBB COMPANY, priority 2013, dated 2018)
Blank lines part the entries; values can stand above or below the molecule they belong to.

Columns and labels:
[1] = molecular target: BRD4 (Homo sapiens, UniProt O60885); assay: Time Resolved Fluorescence Resonance Energy Transfer (TR-FRET) binding assay, BRD4; conditions: one of the FRET assays described; read-out: FRET BRD4 IC50
[2] = test system: H187 Human Small Cell Carcinoma; assay: Human tumor xenograft model in mice, H187; assay type: in vivo; conditions: QD × 7
Text: (§1) All rodents were obtained from Jackson Laboratory. (Bar Harbor, Me.), and maintained in an ammonia-free environment in a defined and pathogen-free colony. All mice were quarantined approximately 1 week prior to their use for tumor propagation and drug efficacy testing. Mice were fed food and water ad libitum. The animal care program of Bristol-Myers Squibb Pharmaceutical Research Institute is fully accredited by the American Association for Accreditation of Laboratory Animal Care (AAALAC). All experiments were performed in accordance with Bristol-Myers Squibb (BMS) animal test methods and guidelines.
(§2) Tumor xenografts were grown and maintained subcutaneously (SC) in NSG (NOD scid IL2 receptor gamma chain knockout) mice (Jackson Lab). Tumors were propagated as subcutaneous transplants using tumor fragments obtained from donor mice.
(§3) The required numbers of animals needed to detect a meaningful response were pooled at the start of the experiment and each was given bilateral subcutaneous implants of two tumor fragments (˜20 mg) with a 13-gauge trocar. Tumors were allowed to grow to the pre-determined size window (tumors outside the range were excluded) and animals were evenly distributed to various treatment and control groups. There were typically 6-8 mice per treatment and control groups, consisting of 10-12 tumors. Treatment of each animal was based on individual body weight. Treated animals were checked daily for treatment related toxicity/mortality. Each group of animals was weighed before the initiation of treatment (Wt1) and then again following the last treatment dose (Wt2). The difference in body weight (Wt2−Wt1) provides a measure of treatment-related toxicity.
(§4) Tumor response was determined by measurement of tumors with a caliper twice a week, until the tumors reached a predetermined “target” size of 0.5 gm or 1 gm depending on the tumor type. Tumor weights (mg) were estimated from the formula: Tumor weight=(length×width^2)÷2
(§5) Tumor response criteria are expressed in terms of tumor growth inhibition (% TGI). Tumor growth delay is defined as the difference in time (days) required for the treated tumors (T) to reach a predetermined target size compared to those of the control group (C). For this purpose, the tumor weight of a group is expressed as medium tumor weight (MTW).
(§6) [formula] where, • Ct=Median control tumor size at end of treatment • C0=Median control tumor size at treatment initiation • Tt=Median tumor size of treated group at end of treatment • T0=Median tumor size of treated group at treatment initiation
(§7) Tumor response was also expressed in terms of tumor growth delay and expressed as log cell kill (LCK value), defined as the difference in time (days) required for the treated tumors (T) to reach a predetermined target size compared to those of the control group (C).
(§8) Whenever possible, antitumor activity was determined at a range of dose levels up to the maximum tolerated dose (MTD) which is defined as the dose level immediately […] which excessive toxicity (i.e. more than one death) occurred. When death occurred, the day of death was recorded. Treated mice dying prior to having their tumors reach target size were considered to have died from drug toxicity. No control mice died bearing tumors less than target size. Treatment groups with more than one death caused by drug toxicity were considered to have had excessively toxic treatments and their data were not included in the evaluation of a compound's antitumor efficacy.
(§9) For administration of BET inhibitors to rodents, compounds were dissolved in […]/10% TPGS/10% Ethanol. BET inhibitors were typically administered orally on a schedule of QD×7 or QD×10 (5 day-on-2 day-off), although other schedules had also been evaluated and shown to be efficacious

[3] = test system: JJN3R multiple myeloma cell line; assay: Human tumor xenograft model in mice, JJN3R; assay type: in vivo; conditions: QD × 7
Text: as §1, §2, §3, §4, §5, §6, §7, §8, §9

Structure (SMILES): Cc1nnn(C)c1-c1cnc2c3ccc(C(C)(C)O)c(F)c3n(C(c3ccccc3)C3CCOCC3)c2c1 (single isomer, unassigned) [Example 70, 2-[3-(dimethyl-1H-1,2,3-triazol-5-yl)-6-fluoro-5-[oxan-4-yl(phenyl)methyl]-5H-pyrido[3,2-b]indol-7-yl]propan-2-ol]
IC50 [1]: < 5 nM | % TGI ([2]; H187, 1 mg/kg): 82.0% | LCK ([2]; H187, 1 mg/kg): 0.7 | % TGI ([2]; H187, 3 mg/kg): 90.0% | LCK ([2]; H187, 3 mg/kg): 1.0 | % TGI ([2]; H187, 10 mg/kg): 96.0% | LCK ([2]; H187, 10 mg/kg): 1.6

IC50 [1]: < 5 nM
Structure (SMILES): [2H]C([2H])([2H])c1nnn(C)c1-c1cnc2c3ccc(S(C)(=O)=O)cc3n([C@H](c3ccccc3)C3CCOCC3)c2c1 [Example 263, 5-{7-Methanesulfonyl-5-[(S)-oxan-4-yl(phenyl)methyl]-5H-pyrido[3,2-b]indol-3-yl}-4-(^2H3)methyl-1-methyl-1H-1,2,3-triazole]
LCK ([3]; 1 mg/kg): 0.2 | LCK ([3]; 4 mg/kg): 0.3

Structure (SMILES): [2H]C([2H])([2H])c1nnn(C)c1-c1cnc2c3cc(F)c(C(C)(C)O)cc3n([C@H](c3ccccc3F)C3CCOCC3)c2c1 [Example 276, 2-{8-Fluoro-5-[(S)-(2-fluorophenyl)(oxan-4-yl)methyl]-3-[4-(^2H3)methyl-1-methyl-1H-1,2,3-triazol-5-yl]-5H-pyrido[3,2-b]indol-7-yl}propan-2-ol]
IC50 [1]: < 5 nM | LCK ([3]; 1 mg/kg): 0.3 | LCK ([3]; 4 mg/kg): 1

IC50 [1]: < 5 nM
Structure (SMILES): [2H]C([2H])([2H])c1nnn(C)c1-c1cnc2c3ccc(C(C)(C)O)c(F)c3n([C@H](c3ccccc3)C3CCOCC3)c2c1 [Example 278, 2-{6-Fluoro-3-[4-(^2H3)methyl-1-methyl-1H-1,2,3-triazol-5-yl]-5-[(S)-oxan-4-yl(phenyl)methyl]-5H-pyrido[3,2-b]indol-7-yl}propan-2-ol]
LCK ([3]; 1 mg/kg): 1 | LCK ([3]; 4 mg/kg): >1.4

Structure (SMILES): [2H]C([2H])([2H])c1nnn(C)c1-c1cnc2c3cc(F)c(C(C)(C)O)cc3n([C@H](c3ccccc3)C3CCOCC3)c2c1 [Example 279, 2-{8-Fluoro-3-[4-(^2H3)methyl-1-methyl-1H-1,2,3-triazol-5-yl]-5-[(S)-oxan-4-yl(phenyl)methyl]-5H-pyrido[3,2-b]indol-7-yl}propan-2-ol]
IC50 [1]: < 5 nM | LCK ([3]; 1 mg/kg): 0.6 | LCK ([3]; 4 mg/kg): >1.4

Structure (SMILES): Cc1nnn(C)c1-c1cnc2c3ccc([C@](C)(O)C4CC4)c(F)c3n([C@H](c3ccccc3)C3CCOCC3)c2c1 [Example 432, (1R)-1-cyclopropyl-1-[3-(dimethyl-1H-1,2,3-triazol-5-yl)-6-fluoro-5-[(S)-oxan-4-yl(phenyl)methyl]-5H-pyrido[3,2-b]indol-7-yl]ethan-1-ol]
IC50 [1]: < 5 nM | LCK ([3]; 1 mg/kg): 0.4 | LCK ([3]; 4 mg/kg): 1.4
